For one data set, the system named is UGT1A1. Briefly: Expression level of UGT1A1 in rat liver (UHPLC-MS/MS signature peptide) and correlation with AUC. In kind it is in vivo. Conditions: before administration of AE-PM. The procedure:
(§1) The detection method for UGT1A1 and nine other transporter proteins in the liver was comprehensively investigated in our study (35).
(§2) The sequence of characteristic peptides that corresponded to UGT1A1 and the other nine transporter proteins were based on our previous experiments and listed in Table 3 .
(§3) Total membrane protein was isolated (in triplicate) from liver tissue samples according to the Native Membrane Protein Extraction Kit protocol. Subsequently, protein concentrations were determined by the BCA Protein Assay Kit. 10 µl of 5 mg/ml (or lower concentration) of a hepatocyte membrane protein incubated with 20 µl of dithiothreitol (100 mM) and 50 µl of ammonium bicarbonate buffer (50 mM, pH 7.8). After incubation at 95°C for 5 min, 20 µl of iodoacetamide (20 mM) was added to the mixture, followed by incubation at 37°C for 20 min in the dark. To concentrate the samples, ice-cold methanol (0.5 ml), chloroform (0.2 ml), and water (0.2 ml) were added. After centrifugation at 4°C for 5 min at 16,000 g, the supernatant was discarded and the pellet was washed once with ice-cold methanol (0.25 ml) and resuspended with 40 µl of reconstitution solution (equal volume of 3% sodium deoxycholate (w/v) and 5 mM ammonium bicarbonate buffer). Finally, the protein sample was digested with 10 µl of trypsin. The protein-to-trypsin ratio was 25:1 (w/w). […]

The subject of the next data set is BSEP. Briefly: Expression level of BSEP in rat liver (UHPLC-MS/MS signature peptide) and correlation with AUC. In kind it is in vivo. Conditions: before administration of AE-PM. As to the method: as §1, §2, §3
The next data set has as its system OATP1A4. Briefly: Expression level of OATP1A4 in rat liver (UHPLC-MS/MS signature peptide) and correlation with AUC. Conditions: before administration of AE-PM. In kind it is in vivo. As to the method:
as §1, §2, §3

The next data set has as its system OCT1. As to the kind of experiment: Expression level of OCT1 in rat liver (UHPLC-MS/MS signature peptide) and correlation with AUC. In kind it is in vivo. Conditions: before administration of AE-PM. The procedure: as §1, §2, §3
For the next data set, the system named is NTCP. Briefly: Expression level of NTCP in rat liver (UHPLC-MS/MS signature peptide) and correlation with AUC. In kind it is in vivo. The settings on record: before administration of AE-PM.
Text: as §1
An Agilent 1290 Infinity series UHPLC system coupled to an Agilent 6460 series MS/MS system (Agilent Technologies, Santa Clara, CA, United States) was applied to quantitate the signature peptides in ESI positive ionization mode. […] The sequence of characteristic peptides that corresponded to UGT1A1 and the other nine transporter proteins were based on our previous experiments and listed in Table 3 .
Total membrane protein was isolated (in triplicate) from liver tissue samples according to the Native Membrane Protein Extraction Kit protocol. Subsequently, protein concentrations were determined by the BCA Protein Assay Kit. 10 µl of 5 mg/ml (or lower concentration) of a hepatocyte membrane protein incubated with 20 µl of dithiothreitol (100 mM) and 50 µl of ammonium bicarbonate buffer (50 mM, pH 7.8). After incubation at 95°C for 5 min, 20 µl of iodoacetamide (20 mM) was added to the mixture, followed by incubation at 37°C for 20 min in the dark. To concentrate the samples, ice-cold methanol (0.5 ml), chloroform (0.2 ml), and water (0.2 ml) were added. […]

The subject of a further data set is MDR1. Briefly: Expression level of MDR1 in rat liver (UHPLC-MS/MS signature peptide) and correlation with AUC. Conditions: before administration of AE-PM. In kind it is in vivo. The procedure: as §1, §2, §3
The nature of data set [1]: Serum biochemistry in ANIT and CCl4 liver injury model rats. In kind it is in vivo, rat. Conditions: 24 h after model induction; before AE-PM.
Protocol: Additionally, group 3 represented the CCl4-induced hepatocytes injury model, which was treated with pure CCl4 (5 ml/kg, s. c.) on day 0, 50% CCl4 (diluted in olive oil) (3 ml/kg, s. c.) on day 3, and 20% CCl4 (diluted in olive oil) (3 ml/kg, s. c.) on day 6. After 24 h, five rats selection for serum and liver collection from each of the three groups. Blood samples were collected in a coagulation tube, and were centrifuged at 4°C for 15 min (4,000 rpm), The resultant serum was used for the ALT, AST, TBIL, DBIL, TBA and ALP assays. Liver samples were dissected and stored at −80°C for further analysis, whereas the central part of the right large lobe of the liver was used for histological examination.
The conditions of data set [2]: rat, in vivo, po.
Protocol: (§4) To explore the pharmacokinetic properties of PM following intragastric administration in rats, a rapid and sensitive method involving the use of UHPLC-MS/MS (Agilent 6460 series, Agilent Technologies, Santa Clara, CA, United States) was developed and validated for the simultaneous quantification of nine active components in rat plasma. The quantification was conducted in ESI negative ionization mode, and mass spectrometry conditions were set up as follows: capillary voltage of 3500 V; gas flow at 12 L/min; nebulizer of 40 psi; the gas temperature of 350°C; and delta EMV (−) of 400. A 10 µl extraction sample was injected into the column (Agilent SB-C18 column, 2.1 mm × 50 mm, 1.8 mm) and eluted at 0.4 ml/min with a gradient elution of water (with 0.1% v/v formic acid) (A) and acetonitrile (B) (0–1.5 min, 20–30% B; 1.5–3.5 min, 30–50% B; 3.five to four min, 50–55%B; 4–6.5 min, 55–85% B; 6.5–6.6 min, 85–20% B and re-equilibration for 3 min).
(§5) A 50 µl aliquot of blood plasma sample was placed in a centrifuge tube with 50 µl of puerarin (internal standard, IS) solution (1,000 ng/ml), followed by 150 µl methanol, which was mixed for 5 min. Then, the mixture was centrifuged for 10 min at 15,000 rpm (4°C), the supernatant was transferred to a clean centrifuge tube and dried with nitrogen gas at room temperature. The residue was resuspended in 100 µl of methanol, then centrifuged at 15,000 rpm (4°C, 10 min), and 10 µl of the supernatant was analyzed by UHPLC-MS/MS.
(§6) Additional plasma samples (50 µl) were enzymatically hydrolyzed with 50 µl of enzyme solution (65.86 mg of sulfatase, dissolved in 2 ml of sodium acetate buffer, pH 5.0) for phase II metabolite quantification, in accordance with our previous study ([Ding et al., 2012]; [Yi et al., 2018]). After being vortex mixed for 5 min, the mixture was incubated at 37°C for 30 min and returned to room temperature. Subsequently, the samples were processed as described above.
(§7) The remaining 21 rats of the three groups were treated with a single oral dose of AE-PM (50.4 g PM/kg). […] Blood was collected in heparinized tubes at 5, 15, 30, 45, 60, 120, 240, 360, 480, 720, 1,440, 2,880, and 4,320 min after administration. The blood samples were centrifuged at 5,000 rpm (4°C) for 7 min, and the supernatant plasma was harvested.
(§8) All data were presented as mean ± standard deviation (SD). A one-way analysis of variance (ANOVA) was used to compare the data between three groups. The differences were considered to be statistically significant when p < 0.05 and highly significant when the p-value was <0.01 or p < 0.001. Spearman rank correlation coefficient, calculated by bivariate correlation analysis was used to evaluate the correlation between AUC values and expression levels of metabolic enzyme and transporters. All statistical analyses were performed with the SPSS Statistics system (SPSS vision 21.0). Pharmacokinetic data analyses were performed using DAS 2.1.1 software (Mathematical Pharmacology Professional Committee of China, Shanghai, China).
Data set [3] is described as follows: Pharmacokinetics of AE-PM components and their phase II metabolites in rat plasma after single oral administration (UHPLC-MS/MS, with and without sulfatase hydrolysis). Conditions: plasma; for CL/F: CLz/F; for MRT inf: MRT (0-∞); for Vd/F: Vz/F.
Protocol: as §4, §5, §6, §7, §8
The mark [4] stands for this setting: CCl4 group rats, oral AE-PM 50 g/kg, n = 6.
Where [5] appears, read: rat, po, 50 g/kg, ANIT group rats, oral AE-PM 50 g/kg, n = 6.
Setting [6] is: rat, po, 50 g/kg, CCl4 group rats, oral AE-PM 50 g/kg, n = 6.
Setting [7] is: rat, po, 50 g/kg, Normal group rats, oral AE-PM 50 g/kg, n = 6.

Turning to `ClC(Cl)(Cl)Cl` [CCl4, Carbon tetrachloride], the “Reduction of UGT1A1 expression level compared with the control group” value with UGT1A1 is listed as 31.18%. Moreover, the “Reduction of BSEP expression level compared with the control group” value with BSEP was determined as 26.92%. Further, in the data set with OATP1A4, the “Reduction of OATP1A4 expression level compared with the control group” value stood at 46.11%. The “Reduction of OCT1 expression level compared with the control group” value in the data set with OCT1 stood at 22.30%. Further, the “Reduction of NTCP expression level compared with the control group” value in the data set with NTCP is reported as 15.75%. Moreover, the “Reduction of MDR1 expression level compared with the control group” value in the data set on MDR1 amounted to 34.15%. In data set [1], the “Increase of serum ALT compared with the control group” value is 4.45 folds and the “Increase of serum AST compared with the control group” value is recorded as 2.68 folds.
`Cc1cc(O)c2c(c1)C(=O)c1cc(O)cc(O)c1C2=O` [Emodin, emodin]: in data set [2], the “Decrease of AUC (0-∞) compared with the normal group” value stood at 55.98%, the “Decrease of Cmax compared with the normal group” value was determined as 85.18%, the “Increase of AUC (0-∞) compared with the normal group” value is listed as 75.69% and the “Increase of Cmax compared with the normal group” value is 57.02%. In addition, in data set [3] (setting [4]), the Tmax was 0.25 ± 0.0659 h and the t1/2z is 3.654 ± 0.267 h. The t1/2z in data set [3] (Normal group rats, oral AE-PM 50 g/kg, n = 6) turned out to be 3.681 ± 1.075 h. In addition, in data set [3] (setting [5]), the AUC(0-inf) was 1500 ng·h/mL, the CL/F is 223 mL/min/kg, the Cmax was 607 ± 29.9 ng/mL and the MRT inf stood at 22.8 ± 5.28 h. In addition, the Vd/F in data set [3] (setting [5]) worked out at 75.5 ± 8.86 L/kg. Further, in data set [3] (setting [6]), the AUC(0-inf) was 5970 ng·h/mL, the CL/F was 55.9 mL/min/kg, the Cmax was determined as 6430 ng/mL and the MRT inf stood at 1.23 ± 0.681 h. The Vd/F in [3] (setting [6]) is 68.1 ± 6.03 L/kg. Moreover, in data set [3] (setting [7]), the AUC(0-inf) is 3400 ng·h/mL, the CL/F was 98.1 mL/min/kg, the Cmax was found to be 4100 ng/mL and the MRT inf amounted to 6.09 ± 1.83 h. For the same compound, the Vd/F in data set [3] (setting [7]) is 31.3 ± 3.25 L/kg. The Tmax in data set [3] (rat, po, 50 g/kg, Tmax, Normal group rats, oral AE-PM 50 g/kg, n = 6) was determined as 0.167 ± 0.059 h. Further, the half-life in data set [3] (rat, po, 50 g/kg, t1/2z, ANIT group rats, oral AE-PM 50 g/kg, n = 6) is 3.91 ± 0.821 h. Also, the Tmax in data set [3] (rat, po, 50.4 g PM/kg, Tmax, different groups (normal, ANIT, CCl4), oral AE-PM) was below 0.5 h. The “Conversion into phase II metabolites” value in data set [3] (rats, oral AE-PM) was “partially converted”.
In the case of `S=C=Nc1cccc2ccccc12` [ANIT, alpha-naphthylisothiocyanate], in the data set with NTCP, the “Reduction of NTCP expression level compared with the control group” value turned out to be 38.02%.

As usually defined, the Tmax is the time from dosing to the highest level. As a reminder, the AUC(0-inf) is total exposure, with the tail of the curve extrapolated. The CL/F is the apparent clearance, not corrected for the fraction that reaches the circulation. A word on the Cmax: it is the maximum level reached in the sampled fluid or tissue. The MRT inf is a mean duration of stay, worked out from the concentration-time curve. Usually Vd/F stands for the volume of distribution divided by bioavailability. As usually defined, the half-life is the time in which the quantity being followed falls by half.

(Values after PMC8245786, “Comparative Studies on Multi-Component Pharmacokinetics of Polygonum multiflorum Thunb Extract After Oral Administration in Different Rat Models” (Frontiers in Pharmacology, 2021).)
